Results reported in article PMC8953563, “A Study on the Effect of the Substituent against PAK4 Inhibition Using In Silico Methods” (International Journal of Molecular Sciences, 2022).
Where two headings read alike, the source gives them in different places.

Biological target: PAK4 (Homo sapiens, UniProt O96013)
Test: radiometric [γ-33P]-ATP kinase assay (Eurofins KinaseProfiler), myelin basic protein substrate
Assay type: biochemical

Chain of PAK4 (O96013 whole entry): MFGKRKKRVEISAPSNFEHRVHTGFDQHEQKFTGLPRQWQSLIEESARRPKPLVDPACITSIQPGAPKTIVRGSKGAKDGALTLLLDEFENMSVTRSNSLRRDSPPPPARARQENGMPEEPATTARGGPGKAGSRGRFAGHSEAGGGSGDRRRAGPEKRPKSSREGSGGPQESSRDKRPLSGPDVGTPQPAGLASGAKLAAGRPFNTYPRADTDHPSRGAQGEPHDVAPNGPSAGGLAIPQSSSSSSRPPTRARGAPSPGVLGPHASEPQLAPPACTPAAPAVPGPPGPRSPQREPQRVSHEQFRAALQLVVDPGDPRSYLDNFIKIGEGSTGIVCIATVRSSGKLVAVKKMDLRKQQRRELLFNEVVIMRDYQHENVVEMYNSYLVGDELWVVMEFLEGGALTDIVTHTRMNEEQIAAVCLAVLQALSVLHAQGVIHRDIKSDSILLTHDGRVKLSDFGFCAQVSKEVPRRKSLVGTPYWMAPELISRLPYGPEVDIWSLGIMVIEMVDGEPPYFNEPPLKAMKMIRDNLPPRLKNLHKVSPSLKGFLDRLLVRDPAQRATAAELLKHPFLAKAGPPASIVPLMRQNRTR

SMILES	IC50 (read-out: 1) [µM]	IC50 (read-out: 2) [µM]
CC(C)c1nn(C)cc1-c1nc2cc(Br)cnc2[nH]1 [compound 1, 6-bromo-2-(3-isopropyl-1-methyl-1H-pyrazol-4-yl)-3H-imidazo[4,5-b]pyridine]	5.15	–
CC(C)c1nn(C)cc1-c1nc2cc(Cl)cnc2[nH]1 [compound 2, 6-chloro-2-(3-isopropyl-1-methyl-1H-pyrazol-4-yl)-3H-imidazo[4,5-b]pyridine]	–	8.53
